{"source": "PubChem BioAssay AID2060496", "about": "(Molecular Pharmacology Branch, DTP, NCI, 2025);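 further: spheroids exposed to drugs for seven days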;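 on viability, T/C: 100% = DMSO vehicle control viability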", "tested_on": "276233-004-R-J1-PDC complex spheroid viability", "experiment": "Anticancer human tumor 276233-004-R-J1-PDC patient-derived colon adenocarcinoma cell line growth inhibition [GQUAD]", "conditions": "for IC50: curve of first compound; for viability, T/C: stronger effect = lower value", "how_it_was_run": "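Tumor cells were grown as complex spheroids with HUVEC endothelial cells and mesenchymal stem cells as stroma. G-quadruplex stabilizers were combined with targeted agents over half-log dilutions from near the clinical Cmax, or from 10 microM.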", "data": [{"smiles": "C#Cc1c(F)ccc2cc(O)cc(-c3ncc4c(N5CC6CCC(C5)N6)nc(OCC56CCCN5CC(F)C6)nc4c3F)c12", "note": "(configuration not stated) + Cc1[nH]c2ccc(F)cc2c1-c1nc2c3cccnc3c3ncccc3c2[nH]1", "values": [{"measurement": "IC50", "setting": "second compound 0.0316 µM", "value": "> 10000", "unit": "nM"}, {"measurement": "IC50", "setting": "second compound 0.1 µM", "value": 2500, "unit": "nM"}, {"measurement": "IC50", "setting": "second compound 0.316 µM", "value": 1130, "unit": "nM"}, {"measurement": "IC50", "setting": "second compound 1 µM", "value": 208, "unit": "nM"}, {"measurement": "IC50", "setting": "second compound 3.16 µM", "value": "< 31.6", "unit": "nM"}, {"measurement": "IC50", "setting": "second compound 10 µM", "value": "< 31.6", "unit": "nM"}, {"measurement": "viability, T/C", "setting": "second compound 0.0316 µM, first compound 0.0316 µM", "value": 89, "unit": "%"}, {"measurement": "viability, T/C", "setting": "second compound 0.0316 µM, first compound 0.1 µM", "value": 85.2, "unit": "%"}, {"measurement": "viability, T/C", "setting": "second compound 0.0316 µM, first compound 0.316 µM", "value": 89.2, "unit": "%"}, {"measurement": "viability, T/C", "setting": "second compound 0.0316 µM, first compound 1 µM", "value": 71.7, "unit": "%"}, {"measurement": "viability, T/C", "setting": "second compound 0.0316 µM, first compound 3.16 µM", "value": 57.2, "unit": "%"}, {"measurement": "viability, T/C", "setting": "second compound 0.0316 µM, first compound 10 µM", "value": 51.2, "unit": "%"}, {"measurement": "viability, T/C", "setting": "second compound 0.1 µM, first compound 0.0316 µM", "value": 80.2, "unit": "%"}, {"measurement": "viability, T/C", "setting": "second compound 0.1 µM, first compound 0.1 µM", "value": 80.3, "unit": "%"}, {"measurement": "viability, T/C", "setting": "second compound 0.1 µM, first compound 0.316 µM", "value": 82.5, "unit": "%"}, {"measurement": "viability, T/C", "setting": "second compound 0.1 µM, first compound 1 µM", "value": 73.8, "unit": "%"}, {"measurement": "viability, T/C", "setting": "second compound 0.1 µM, first compound 3.16 µM", "value": 44, "unit": "%"}, {"measurement": "viability, T/C", "setting": "second compound 0.1 µM, first compound 10 µM", "value": 34.1, "unit": "%"}, {"measurement": "viability, T/C", "setting": "second compound 0.316 µM, first compound 0.0316 µM", "value": 68.4, "unit": "%"}, {"measurement": "viability, T/C", "setting": "second compound 0.316 µM, first compound 0.1 µM", "value": 67.4, "unit": "%"}, {"measurement": "viability, T/C", "setting": "second compound 0.316 µM, first compound 0.316 µM", "value": 57, "unit": "%"}, {"measurement": "viability, T/C", "setting": "second compound 0.316 µM, first compound 1 µM", "value": 56, "unit": "%"}, {"measurement": "viability, T/C", "setting": "second compound 0.316 µM, first compound 3.16 µM", "value": 33.8, "unit": "%"}, {"measurement": "viability, T/C", "setting": "second compound 0.316 µM, first compound 10 µM", "value": 27.4, "unit": "%"}, {"measurement": "viability, T/C", "setting": "second compound 1 µM, first compound 0.0316 µM", "value": 70.3, "unit": "%"}, {"measurement": "viability, T/C", "setting": "second compound 1 µM, first compound 0.1 µM", "value": 48.7, "unit": "%"}, {"measurement": "viability, T/C", "setting": "second compound 1 µM, first compound 0.316 µM", "value": 48.7, "unit": "%"}, {"measurement": "viability, T/C", "setting": "second compound 1 µM, first compound 1 µM", "value": 39.7, "unit": "%"}, {"measurement": "viability, T/C", "setting": "second compound 1 µM, first compound 3.16 µM", "value": 40, "unit": "%"}, {"measurement": "viability, T/C", "setting": "second compound 1 µM, first compound 10 µM", "value": 26.2, "unit": "%"}, {"measurement": "viability, T/C", "setting": "second compound 3.16 µM, first compound 0.0316 µM", "value": 19.1, "unit": "%"}, {"measurement": "viability, T/C", "setting": "second compound 3.16 µM, first compound 0.1 µM", "value": 14.9, "unit": "%"}, {"measurement": "viability, T/C", "setting": "second compound 3.16 µM, first compound 0.316 µM", "value": 12.7, "unit": "%"}, {"measurement": "viability, T/C", "setting": "second compound 3.16 µM, first compound 1 µM", "value": 13.6, "unit": "%"}, {"measurement": "viability, T/C", "setting": "second compound 3.16 µM, first compound 3.16 µM", "value": 9.51, "unit": "%"}, {"measurement": "viability, T/C", "setting": "second compound 3.16 µM, first compound 10 µM", "value": 17.4, "unit": "%"}, {"measurement": "viability, T/C", "setting": "second compound 10 µM, first compound 0.0316 µM", "value": 35.7, "unit": "%"}, {"measurement": "viability, T/C", "setting": "second compound 10 µM, first compound 0.1 µM", "value": 41.8, "unit": "%"}, {"measurement": "viability, T/C", "setting": "second compound 10 µM, first compound 0.316 µM", "value": 35.7, "unit": "%"}, {"measurement": "viability, T/C", "setting": "second compound 10 µM, first compound 1 µM", "value": 34.2, "unit": "%"}, {"measurement": "viability, T/C", "setting": "second compound 10 µM, first compound 3.16 µM", "value": 28.1, "unit": "%"}, {"measurement": "viability, T/C", "setting": "second compound 10 µM, first compound 10 µM", "value": 15.6, "unit": "%"}]}]}
